In US7871982B2, “Lincomycin derivatives and antimicrobial agents comprising the same as active ingredient” (Meiji Seika Kaisha, Ltd., priority 2005, dated 2011):
In brackets after ≈: the same amount, converted by molar mass.

How the values were obtained:
Assay in all cases: Antimicrobial activity, MIC against pneumococci (agar dilution)
Format in all cases: cell-based
S. pneumoniae 1820 = settings: sensitivity disk agar-N+5% horse blood, inoculum 10^6 CFU/ml; for MIC: Streptococcus pneumoniae, read-out: minimal inhibitory concentration (MIC)
Method: (§1) For representative compounds among lincomycin derivatives according to the present invention, the minimal inhibitory concentration (MIC, μg/ml) against various pneumococci was measured according to the method described in CHEMOTHERAPY, vol. 16, No. 1, 99, 1968. Sensitivity disk agar-N+5% horse blood was used as the medium for the measurement. The amount of bacteria inoculated was 10^6 CFU/ml.

S. pneumoniae 1913 = settings: sensitivity disk agar-N+5% horse blood, inoculum 10^6 CFU/ml; for MIC: Streptococcus pneumoniae, read-out: minimal inhibitory concentration (MIC)
Method: as §1

S. pneumoniae 225 = settings: sensitivity disk agar-N+5% horse blood, inoculum 10^6 CFU/ml; for MIC: Streptococcus pneumoniae, read-out: minimal inhibitory concentration (MIC)
Method: as §1

S. pneumoniae DPI Type[…] = settings: for minimal inhibitory concentration (MIC): S. pneumoniae DPI Type[…], sensitivity disk agar-N+5% horse blood, inoculum 10^6 CFU/ml; for MIC: Streptococcus pneumoniae, read-out: minimal inhibitory concentration (MIC)
Method: as §1

S. pneumoniae IP692 = settings: sensitivity disk agar-N+5% horse blood, inoculum 10^6 CFU/ml; for MIC: Streptococcus pneumoniae, read-out: minimal inhibitory concentration (MIC)
Method: as §1

S. pneumoniae PRC-206 = settings: inoculum 10^6 CFU/ml; for minimal inhibitory concentration (MIC): sensitivity disk agar-N+5% horse blood; for MIC: Streptococcus pneumoniae, PRC206, sensitivity disk agar-N+5% horse blood, read-out: minimal inhibitory concentration (MIC)
Method: as §1

S. pneumoniae PRC-53 = settings: inoculum 10^6 CFU/ml; for minimal inhibitory concentration (MIC): sensitivity disk agar-N+5% horse blood; for MIC: Streptococcus pneumoniae, PRC53, sensitivity disk agar-N+5% horse blood, read-out: minimal inhibitory concentration (MIC)
Method: as §1

S. pneumoniae PRC0-91 = settings: inoculum 10^6 CFU/ml; for minimal inhibitory concentration (MIC): sensitivity disk agar-N+5% horse blood
Method: as §1

S. pneumoniae TH-662 = settings: inoculum 10^6 CFU/ml; for minimal inhibitory concentration (MIC): sensitivity disk agar-N+5% horse blood; for MIC: Streptococcus pneumoniae, TH662, sensitivity disk agar-N+5% horse blood, read-out: minimal inhibitory concentration (MIC)
Method: as §1

S. pneumoniae TH-96 = settings: inoculum 10^6 CFU/ml; for minimal inhibitory concentration (MIC): sensitivity disk agar-N+5% horse blood; for MIC: Streptococcus pneumoniae, TH96, sensitivity disk agar-N+5% horse blood, read-out: minimal inhibitory concentration (MIC)
Method: as §1

| SMILES | minimal inhibitory concentration (MIC) (S. pneumoniae 1820) | minimal inhibitory concentration (MIC) (S. pneumoniae 1913) | minimal inhibitory concentration (MIC) (S. pneumoniae 225) | minimal inhibitory concentration (MIC) (S. pneumoniae DPI Type[…]) | minimal inhibitory concentration (MIC) (S. pneumoniae IP692) | minimal inhibitory concentration (MIC) (S. pneumoniae PRC-206) | minimal inhibitory concentration (MIC) (S. pneumoniae PRC-53) | minimal inhibitory concentration (MIC) (S. pneumoniae PRC0-91) | minimal inhibitory concentration (MIC) (S. pneumoniae TH-662) | minimal inhibitory concentration (MIC) (S. pneumoniae TH-96) | MIC (S. pneumoniae 1820) | MIC (S. pneumoniae 1913) | MIC (S. pneumoniae 225) | MIC (S. pneumoniae DPI Type[…]) | MIC (S. pneumoniae IP692) | MIC (S. pneumoniae PRC-206) | MIC (S. pneumoniae PRC-53) | MIC (S. pneumoniae TH-662) | MIC (S. pneumoniae TH-96) | MIC (S. pneumoniae PRC0-91; Streptococcus pneumoniae, PRC091, sensitivity disk agar-N+5% horse blood, read-out: minimal inhibitory concentration (MIC)) |
| --- | --- | --- | --- | --- | --- | --- | --- | --- | --- | --- | --- | --- | --- | --- | --- | --- | --- | --- | --- | --- |
| CCCC1CC(C(=O)NC(C(C)Sc2ccc(N(C)C(=O)COC)cc2)C2OC(SC)C(O)C(O)C2O)N(C)C1 (stereo not drawn) [Compound 170, 7-Deoxy-7-epi-7-(4-(methoxy-N-methylacetamido)phenylthio)-lincomycin] | 8 µg/mL (≈ 13.3 µM) | 0.13 µg/mL (≈ 0.217 µM) | 128 µg/mL (≈ 213 µM) | 0.13 µg/mL (≈ 0.217 µM) | 0.13 µg/mL (≈ 0.217 µM) | 16 µg/mL (≈ 26.7 µM) | 0.13 µg/mL (≈ 0.217 µM) | 8 µg/mL (≈ 13.3 µM) | 8 µg/mL (≈ 13.3 µM) | 0.13 µg/mL (≈ 0.217 µM) | – | – | – | – | – | – | – | – | – | – |
| CCC[C@@H]1C[C@@H](C(=O)N[C@@H]([C@H]2O[C@H](SC)[C@H](O)[C@@H](O)[C@H]2O)[C@H](C)Sc2ccc(NC(=O)CC)cn2)N(C)C1 [Compound 191, 7-Deoxy-7-epi-7-(5-(propionamido)pyridin-2-ylthio)-lincomycin] | 4 µg/mL (≈ 7.01 µM) | 0.015 µg/mL (≈ 0.0263 µM) | 32 µg/mL (≈ 56.1 µM) | 0.015 µg/mL (≈ 0.0263 µM) | 0.015 µg/mL (≈ 0.0263 µM) | 8 µg/mL (≈ 14 µM) | 0.03 µg/mL (≈ 0.0526 µM) | 2 µg/mL (≈ 3.5 µM) | – | 0.03 µg/mL (≈ 0.0526 µM) | – | – | – | – | – | – | – | – | – | – |
| CCCC1CC(C(=O)NC(C(C)Sc2nnc(NC(=O)COC)s2)C2OC(SC)C(O)C(O)C2O)N(C)C1 (stereo not drawn) [Compound 195, 7-Deoxy-7-epi-7-(5-(2-methoxyacetamido)-1,3,4-thiadiazol-2-ylthio)lincomycin] | 16 µg/mL (≈ 26.9 µM) | 0.13 µg/mL (≈ 0.219 µM) | 64 µg/mL (≈ 108 µM) | 0.06 µg/mL (≈ 0.101 µM) | 0.03 µg/mL (≈ 0.0505 µM) | 64 µg/mL (≈ 108 µM) | 0.06 µg/mL (≈ 0.101 µM) | 8 µg/mL (≈ 13.5 µM) | 8 µg/mL (≈ 13.5 µM) | 0.06 µg/mL (≈ 0.101 µM) | – | – | – | – | – | – | – | – | – | – |
| CCC[C@@H]1C[C@@H](C(=O)N[C@@H]([C@H]2O[C@H](SC)[C@H](O)[C@@H](O)[C@H]2O)[C@H](C)Sc2ccc(C(=O)N3CCCC3)cc2)N(C)C1 [Compound 228, 7-Deoxy-7-epi-7-(4-(pyrrolidino-carbonyl)phenylthio)lincomycin] | 4 µg/mL (≈ 6.71 µM) | 0.13 µg/mL (≈ 0.218 µM) | 16 µg/mL (≈ 26.9 µM) | 0.13 µg/mL (≈ 0.218 µM) | 0.06 µg/mL (≈ 0.101 µM) | 4 µg/mL (≈ 6.71 µM) | 0.06 µg/mL (≈ 0.101 µM) | 2 µg/mL (≈ 3.36 µM) | 2 µg/mL (≈ 3.36 µM) | – | – | – | – | – | – | – | – | – | – | – |
| CCC[C@@H]1C[C@@H](C(=O)N[C@@H](C2OC(SC)C(O)C(O)C2O)[C@H](C)SCc2ccc(C(=O)N3CCCCC3)cc2)N(C)C1 (stereo partly drawn) [Compound 235, 7-Deoxy-7-epi-7-(4-(piperidino-carbonyl)benzylthio)lincomycin] | – | – | – | – | – | – | – | – | – | – | 8 µg/mL (≈ 12.8 µM) | 0.03 µg/mL (≈ 0.0481 µM) | 32 µg/mL (≈ 51.3 µM) | 0.015 µg/mL (≈ 0.024 µM) | 0.015 µg/mL (≈ 0.024 µM) | 4 µg/mL (≈ 6.41 µM) | 0.03 µg/mL (≈ 0.0481 µM) | 1 µg/mL (≈ 1.6 µM) | 0.03 µg/mL (≈ 0.0481 µM) | – |
| CCC[C@H]1CN[C@H](C(=O)N[C@@H]([C@H]2O[C@H](SC)[C@H](O)[C@@H](O)[C@H]2O)[C@H](C)Sc2nnc(-c3sccc3N)s2)C1 [Compound 304, 7-(5-(3-Aminothiophen-2-yl)-1,3,4-thiadiazol-2-ylthio)-1′-demethyl-7-deoxy-7-epilincomycin] | 4 µg/mL (≈ 6.78 µM) | 0.13 µg/mL (≈ 0.22 µM) | 16 µg/mL (≈ 27.1 µM) | 0.13 µg/mL (≈ 0.22 µM) | 0.13 µg/mL (≈ 0.22 µM) | 4 µg/mL (≈ 6.78 µM) | 0.13 µg/mL (≈ 0.22 µM) | 2 µg/mL (≈ 3.39 µM) | 2 µg/mL (≈ 3.39 µM) | 0.13 µg/mL (≈ 0.22 µM) | – | – | – | – | – | – | – | – | – | – |
| CCC[C@@H]1CCN[C@H](C(=O)N[C@@H]([C@H]2O[C@H](SC)[C@H](O)[C@@H](O)[C@H]2O)[C@H](C)Sc2ncc(C(=O)OCC)c(N)n2)C1 [Compound 364, Methyl 7-(4-amino-5-ethoxycarbonylpyrimidin-2-ylthio)-7-deoxy-7-epi-6-N-((2S,4R)-4-propyl)pipecoloyl-1-thio-α-lincosamide] | 4 µg/mL (≈ 6.81 µM) | 0.13 µg/mL (≈ 0.221 µM) | 4 µg/mL (≈ 6.81 µM) | 0.13 µg/mL (≈ 0.221 µM) | 0.13 µg/mL (≈ 0.221 µM) | 4 µg/mL (≈ 6.81 µM) | 0.03 µg/mL (≈ 0.051 µM) | – | 2 µg/mL (≈ 3.4 µM) | 0.06 µg/mL (≈ 0.102 µM) | – | – | – | – | – | – | – | – | – | – |
| CC[C@@H]1CCN(C)[C@H](C(=O)N[C@@H]([C@H]2O[C@H](SC)[C@H](O)[C@@H](O)[C@H]2O)[C@H](C)Sc2nnc(-c3ccc(F)cc3[N+](=O)[O-])s2)C1 [Compound 396, Methyl 7-deoxy-7-epi-7-(5-(4-fluoro-2-nitrophenyl)-1,3,4-thiadiazol-2-ylthio)-6-N-((2S,4R)-1-N-methyl-4-ethyl)pipecoloyl-1-thio-α-lincosamide] | 16 µg/mL (≈ 24.8 µM) | 0.008 µg/mL (≈ 0.0124 µM) | >128 µg/mL | 0.015 µg/mL (≈ 0.0232 µM) | 0.008 µg/mL (≈ 0.0124 µM) | 64 µg/mL (≈ 99.1 µM) | 0.015 µg/mL (≈ 0.0232 µM) | 4 µg/mL (≈ 6.19 µM) | 8 µg/mL (≈ 12.4 µM) | 0.015 µg/mL (≈ 0.0232 µM) | – | – | – | – | – | – | – | – | – | – |
| CCC[C@@H]1C[C@@H](C(=O)N[C@H](C2OC(SC)C(O)C(O)C2O)[C@@H](C)Sc2ccc(-c3cccnc3[N+](=O)[O-])cc2)N(C)C1 (stereo partly drawn) [Compound 446, 7-Deoxy-7-epi-7-(4-(2-nitropyridin-3-yl)phenylthio)-lincomycin] | – | – | – | – | – | – | – | – | – | – | 4 µg/mL (≈ 6.44 µM) | 0.03 µg/mL (≈ 0.0483 µM) | 64 µg/mL (≈ 103 µM) | 0.03 µg/mL (≈ 0.0483 µM) | 0.03 µg/mL (≈ 0.0483 µM) | 8 µg/mL (≈ 12.9 µM) | 0.015 µg/mL (≈ 0.0242 µM) | 2 µg/mL (≈ 3.22 µM) | 0.015 µg/mL (≈ 0.0242 µM) | 4 µg/mL (≈ 6.44 µM) |
